Reference: patent US9700543B2, “GLP-1 receptor stabilizers and modulators” (Celgene International II SÀRL, priority 2011, dated 2017)

Assays:
GLP-1R = target: T1, GLP-1R (Homo sapiens, UniProt P43220); assay: EC20 GLP-1(9-36) PAM cAMP assay: dose response of compound in the presence of fixed concentration of GLP-1(9-36); type: cell-based; conditions: compound dose response with fixed GLP-1(9-36), GLP-1R CRE-bla CHO-K1 cells; for EC20 GLP-1 (9-36) PAM Activity max cAMP: Emax as total cAMP; for EC50: cAMP
T1 construct: host or cells: CRE-bla CHO-K1
Experimental: EC20GLP-1(9-36) PAM cAMP Assay: Dose Response of Compound in the Presence of Fixed Concentration of GLP-1 (9-36)
GLP-1R CRE-bla CHO-K1 cells were seeded into 384-well white flat bottom plates at 10,000 cells/well/20 μL growth medium (DMEM-High glucose, 10% dialyzed FBS, 0.1 mM NEAA, 25 mM Hepes, 100 U/mL penicillin/100 μg/mL streptomycin, 5 μg/mL Blasticidin, 600 μg/mL Hygromycin) and incubated for 18 h at 37° C. in 5% CO2. Growth medium was replaced with 12 μL assay buffer (Hanks Balanced Salt solution, 10 mM Hepes, 0.1% BSA, pH7.4). A 5× compound dose response curve (12-point) was generated in assay buffer containing 1.5 mM IBMX, 12.5% DMSO. GLP-1(9-36) was diluted to 4.2 μM in assay buffer containing 1.5 mM IBMX and 12.5% DMSO. The 5× compound dose response was added (3 μL), followed by 0.5 μL of GLP-1(9-36) and cells were incubated for 30 min at 37° C. Direct detection of cAMP was carried out using DiscoveRx HitHunter cAMP kit according to manufacturer's instructions and luminescence was read using a SpectraMax M5 plate reader. Luminescence was converted to total cAMP using a cAMP standard curve and data was analyzed by non-linear regression to determine the EC50 and Emax.

[1] = Determination of absolute oral bioavailability in rats; type: in vivo; conditions: rat, plasma, fasted female Sprague-Dawley rats, intravenous 1 mg/kg
Experimental: Determination of Absolute Oral Bioavailability in Rats
All pharmacokinetic studies were conducted in fasted female Sprague-Dawely rats (Simonsen Laboratories or Harlan Laboratories). Rats were housed in an ALAAC accredited facility and the research was approved by the facilities Institutional Animal Care and Use Committee (IACUC). The animals were acclimated to the laboratory for at least 48 h prior to initiation of experiments.
Compounds were formulated in 20% hydroxy beta cyclodextrin or 20% captisol and 80%-25 mM NaPO4 Buffer (pH 8) (intravenous infusion), or 5% DMSO/5% Tween20 and 90% water (oral gavage or intraperitoneal injection). The concentration of the dosing solutions was verified by HPLC-UV. For intravenous dosing, compounds were administered into the tail vein to manually restrained animals (n=3 rats/compound). The intravenous dose was 1 mg/kg. Oral dosing was by gavage using a standard stainless steel gavage needle (n=2-4 rats/compound). The oral solution dose was 5 mg/kg. For compounds 1 and 3, the oral solution dose was 30 mg/kg. For both routes of administration, blood was collected into BD Microtainer tubes with Dipotassium EDTA as the anticoagulantant eight time-points after dosing with the final sample drawn 24 h post dose Plasma was separated by centrifugation and transferred to a polypropylene 96-well plate and kept at 4° C. until analysis.
Proteins were precipitated by adding 150 μL acetonitrile to 50 μL of plasma. Plates were mixed for 1 min on a plate shaker to facilitate protein precipitation and then centrifuged at 3,000 rpm for 10 min to pellet protein. The supernatant was transferred to a clean plate and centrifuged at 3,000 rpm for 10 min to pellet any remaining solid material prior to LC/MS/MS analysis. Calibration curve standards were prepared by spiking 54 compound stock in DMSO into rat plasma from untreated animals. An eight point standard curve spanning a range of 0.14 nM to 300 nM was included with each bio-analytical run. The standards were processed identically to the rat pharmacokinetic samples.
Concentrations in the rat pharmacokinetic samples were determined using a standardized HPLC-LC/MS/MS method relative to the eight point standard curve. The system consisted of a Leap CTC Pal injector, Agilent 1200 HPLC with binary pump coupled with an Applied Biosystems 4000 QTrap. Compounds were chromatographed on a Phenomenex Luna C8(2) 20×2 mm 2 um Mercury Cartridge with Security Guard. A gradient method was used with mobile phase A consisting of 0.1% formic acid in water and mobile phase B consisting of 0.1% formic acid in acetonitrile at flow rates varying from 0.7 to 0.8 mL/min. Ions were generated in positive ionization mode using an electrospray ionization (ESI) interface. Multiple reaction monitoring (MRM) methods were developed specific to each compound. The heated nebulizer was set at 500° C. with a nebulizer current of 5.1 μA. Collision energies used to generate daughter ions ranged between 29 and 80 V. Peak area obtained from MRM of the mass transitions specific for each compound were used for quantification. The limit of quantification of the method was typically 1.2 nM. Data were collected and analyzed using Analyst software version 1.5.1. Blood concentration versus time data were analyzed using non-compartmental methods (WinNonlin Phoenix version 6.2; model 200 for oral or intraperitoneal dosing and model 202 for intravenous infusion). Absolute oral bioavailability (%) was calculated using the following expression: (Oral AUC×IV Dose)/(IV AUC×Oral Dose)×100.

[2] = oral solution 30 mg/kg (compounds 1 and 3)

T1 sequence (P43220 24-463): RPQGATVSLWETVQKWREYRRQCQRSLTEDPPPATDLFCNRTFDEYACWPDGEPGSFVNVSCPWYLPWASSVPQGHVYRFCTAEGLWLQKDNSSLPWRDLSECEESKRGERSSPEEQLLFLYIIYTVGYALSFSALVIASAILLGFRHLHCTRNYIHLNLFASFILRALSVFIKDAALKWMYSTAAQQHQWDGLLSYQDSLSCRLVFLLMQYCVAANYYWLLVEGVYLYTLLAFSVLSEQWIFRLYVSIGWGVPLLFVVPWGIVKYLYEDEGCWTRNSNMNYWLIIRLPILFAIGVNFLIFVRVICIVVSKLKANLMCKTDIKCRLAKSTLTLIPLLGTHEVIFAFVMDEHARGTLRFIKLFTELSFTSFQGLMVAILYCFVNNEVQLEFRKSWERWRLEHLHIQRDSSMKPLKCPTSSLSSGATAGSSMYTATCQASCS
T1 sequence (P01275 100-127 partner limits assumed): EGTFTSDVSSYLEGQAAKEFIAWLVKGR

| EC20 GLP-1 (9-36) PAM Activity max cAMP (GLP-1R) [nM] | EC50 (GLP-1R) [nM] | bioavailability [1, 2] [%] | bioavailability ([1]; oral solution 5 mg/kg) [%] | SMILES |
| --- | --- | --- | --- | --- |
| 252 | 7000 | – | – | COc1ccc(CC(=O)Nc2ccc(C(=O)N(CC(=O)O)Cc3ccc(OC(=O)c4ccc(OCCC(C)C)cc4)cc3)cc2)cc1 [Compound 46, 2-(N-(4-((4-(isopentyloxy)benzoyl)oxy)benzyl)-4-(2-(4-methoxyphenyl)acetamido)benzamido) acetic acid] |
| 248 | 1300 | – | – | COc1ccc(CC(=O)Nc2ccc(C(=O)N(CC(=O)O)Cc3ccc(OC(=O)c4ccc(-c5ccc(C)cc5)cc4)cc3)cc2)c(C(F)(F)F)c1 [Compound 192, 2-(4-(2-(4-methoxy-2-(trifluoromethyl)phenyl)acetamido)-N-(4-((4′-methyl-[1,1′-biphenyl]-4-carbonyl)oxy)benzyl)benzamido)acetic acid] |
| 307 | 500 | – | – | COc1ccc(CC(=O)Nc2ccc(C(=O)N(CC(=O)O)Cc3ccc(OC(=O)c4ccc(-c5ccc(C)cc5)cc4)cc3)c(OC)c2)c(C(F)(F)F)c1 [Compound 314, 2-(2-methoxy-4-(2-(4-methoxy-2-(trifluoromethyl)phenyl)acetamido)-N-(4-((4′-methyl-[1,1′-biphenyl]-4-carbonyl)oxy)benzyl)benzamido)acetic acid] |
| 297 | 300 | – | 2 | COc1ccc(CC(=O)Nc2ccc(C(=O)N(CC(=O)O)Cc3ccc(-c4noc(-c5ccc(-c6ccc(C)cc6)cc5)n4)cc3)cc2)c(C(F)(F)F)c1 [Compound 354, 2-(4-(2-(4-methoxy-2-(trifluoromethyl)phenyl)acetamido)-N-(4-(5-(4′-methyl-[1,1′-biphenyl]-4-yl)-1,2,4-oxadiazol-3-yl)benzyl)benzamido)acetic acid] |
| 266 | 2900 | – | 2 | COc1ccc(CC(=O)Nc2ccc(C(=O)N(CC(=O)O)Cc3ccc(-c4noc(-c5ccc(C)cc5)n4)cc3)cc2)c(C(F)(F)F)c1 [Compound 355, 2-(4-(2-(4-methoxy-2-(trifluoromethyl)phenyl)acetamido)-N-(4-(5-(p-tolyl)-1,2,4-oxadiazol-3-yl)benzyl)benzamido)acetic acid] |
| 290 | 500 | – | 2 | COc1ccc(CC(=O)Nc2ccc(C(=O)N(CC(=O)O)Cc3ccc(-c4nc(-c5ccc(-c6ccc(C)cc6)cc5)co4)cc3)cc2)c(C(F)(F)F)c1 [Compound 360, 2-(4-(2-(4-methoxy-2-(trifluoromethyl)phenyl)acetamido)-N-(4-(4-(4′-methyl-[1,1′-biphenyl]-4-yl)oxazol-2-yl)benzyl)benzamido)acetic acid] |
| 234 | 2700 | – | – | COc1ccc(CC(=O)Nc2ccc(C(=O)N(CC(=O)O)Cc3ccc(-c4n[nH]c(-c5ccc(-c6ccc(C)cc6)cc5)n4)cc3)cc2)c(C(F)(F)F)c1 [Compound 361, 2-(4-(2-(4-methoxy-2-(trifluoromethyl)phenyl)acetamido)-N-(4-(5-(4′-methyl-[1,1′-biphenyl]-4-yl)-1H-1,2,4-triazol-3-yl)benzyl)benzamido)acetic acid] |
| 281 | 300 | – | 8 | COc1ccc(CC(=O)Nc2ccc(C(=O)N(CC(=O)O)Cc3ccc(-c4nc(-c5ccc(-c6ccc(C)cc6)cc5)no4)cc3)cc2)c(C(F)(F)F)c1 [Compound 362, 2-(4-(2-(4-methoxy-2-(trifluoromethyl)phenyl)acetamido)-N-(4-(3-(4′-methyl-[1,1′-biphenyl]-4-yl)-1,2,4-oxadiazol-5-yl)benzyl)benzamido)acetic acid] |

Second part, the compound before the results:

| SMILES | EC20 GLP-1 (9-36) PAM Activity max cAMP (GLP-1R) [nM] | EC50 (GLP-1R) [nM] | bioavailability [1, 2] [%] | bioavailability ([1]; oral solution 5 mg/kg) [%] |
| --- | --- | --- | --- | --- |
| CCCCCCCOc1ccc(C(=O)Oc2ccc(CN(CC(=O)O)C(=O)c3ccc(NC(=O)Cc4ccc(OC)cc4)cc3)cc2)cc1 [Compound 1, 2-(N-(4-((4-(heptyloxy)benzoyl)oxy)benzyl)-4-(2-(4-methoxyphenyl)acetamido)benzamido)-acetic acid] | 240 | 3600 | < 1 | – |
| CCCCCCCOc1ccc(C(=O)Oc2ccc(CN(CC(=O)O)C(=O)c3ccc(NC(=O)Cc4ccc(OC)cc4C(F)(F)F)cc3)cc2)cc1 [Compound 3, 2-(N-(4-((4-(heptyloxy)benzoyl)oxy)benzyl)-4-(2-(4-methoxy-2-(trifluoromethyl)phenyl)-acetamido)benzamido)acetic acid] | 284 | 1300 | < 1 | – |
| CCCCCCCOc1ccc(C(=O)Oc2ccc(CN(CC(=O)O)C(=O)c3ccc(NC(=O)Cc4ccc(C)c(OC)c4)cc3)cc2)cc1 [Compound 4, 2-(N-(4-((4-(heptyloxy)benzoyl)oxy)benzyl)-4-(2-(3-methoxy-4-methylphenyl)-acetamido)benzamido)acetic acid] | 371 | 2400 | – | – |
| CCCCCCCCCOc1ccc(C(=O)Oc2ccc(CN(CC(=O)O)C(=O)c3ccc(NC(=O)Cc4ccc(OC)cc4)cc3)cc2)cc1 [Compound 16, 2-(4-(2-(4-methoxyphenyl)acetamido)-N-(4-((4-(nonyloxy)benzoyl)oxy)benzyl)benzamido) acetic acid] | 293 | 1200 | – | – |
| CCCCCCCCOc1ccc(C(=O)Oc2ccc(CN(CC(=O)O)C(=O)c3ccc(NC(=O)Cc4ccc(OC)cc4)cc3)cc2)cc1 [Compound 17, 2-(4-(2-(4-methoxyphenyl)acetamido)-N-(4-((4-(octyloxy)benzoyl)oxy)benzyl)benzamido) acetic acid] | 281 | 1500 | – | – |
| CCCCCCOc1ccc(C(=O)Oc2ccc(CN(CC(=O)O)C(=O)c3ccc(NC(=O)Cc4ccc(OC)cc4)cc3)cc2)cc1 [Compound 18, 2-(N-(4-((4-(hexyloxy)benzoyl)oxy)benzyl)-4-(2-(4-methoxyphenyl)acetamido)benzamido) acetic acid] | 182 | 3100 | – | – |
| COc1ccc(CC(=O)Nc2ccc(C(=O)N(CC(=O)O)Cc3ccc(OC(=O)c4ccc(C5CCCCC5)cc4)cc3)cc2)cc1 [Compound 39, 2-(N-(4-((4-cyclohexylbenzoyl)oxy)benzyl)-4-(2-(4-methoxyphenyl)acetamido)benzamido) acetic acid] | 273 | 2500 | – | – |
| CCCCCCCCc1ccc(C(=O)Oc2ccc(CN(CC(=O)O)C(=O)c3ccc(NC(=O)Cc4ccc(OC)cc4)cc3)cc2)cc1 [Compound 40, 2-(4-(2-(4-methoxyphenyl)acetamido)-N-(4-((4-octylbenzoyl)oxy)benzyl)benzamido)acetic acid] | 397 | 2100 | – | – |
